The source of these data is patent US20170166555A1, “FUNCTIONALISED AND SUBSTITUTED INDOLES AS ANTI-CANCER AGENTS” (Novogen Limited, priority 2013, published 2017).

Read-outs that look alike come from different tables or passages of the source. A value given as a limit tells only on which side of the number the result lay.

The subject of test [1] is neuroblastoma (SH-EP) cells. Description: Cell viability assay (MTT, 48 hr). The format is cell-based. Conditions: 48 hr treatment, read-out: IC50 (μM) SHEP. Here is the method: (§1) Cell viability assays were also conducted to assess the anti-proliferative effects of the anti-tropomyosin compounds 4001-4015. Briefly, cells (1×10^3/well) were plated (96-well) and treated (48 hr) with anti-tropomyosin drug and viability measured using 3-(4,5-dimethylthiazol-2-yl)-2,5-diphenylterazolium bromide MTT. Cell viability was normalized to control (vehicle alone) and dose-response curves, and half maximal effective concentration (EC50) values were determined using Graph Pad Prism 5 (nonlinear regression sigmoidal dose-response variable slope).

The test system of test [2] is melanoma (SK-Mel-28) cells. Put plainly: Cell viability assay (MTT, 48 hr). The format is cell-based. Conditions: Homo sapiens, 48 hr treatment, read-out: IC50 (μM) SKMEL28. The protocol:
as §1

Test [3] deals with DU145 prostate cancer cells. Description: Anti-proliferative assay, cell-titre luminescent reagent, 72 h (GVK-BIO). The format is cell-based. As to conditions: Homo sapiens. An outline of the steps: (§2)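 Two dose schemes were used: 30, 3, 0.3, 0.03 μM, giving IC50 by linear regression of percent of control against log concentration; and 30, 10, 3, 1, 0.3, 0.1 μM, giving EC50 by nonlinear variable-slope regression after normalizing to vehicle. Cells had attached for 24 h beforehand.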

The subject of test [4] is CaCo2 colorectal cancer cells. The test is described as above. Conditions: Homo sapiens. Format: cell-based. An outline of the steps:
as §2

In test [5] the test system is A549 non-small cell lung carcinoma cells. The description is as above. Format: cell-based. As to conditions: Homo sapiens, read-out: IC50/μM Lung (NSLC) A549. An outline of the steps: as §2
Test [6] concerns PC3 prostate cancer cells. Described as above. Format: cell-based. In short, it runs like this:
as §2

Test [7] has as its system SK-N-SH neuroblastoma cells. The description is as above. The format is cell-based. As to conditions: Homo sapiens. An outline of the steps:
as §2

Test [8] relates to MDA-MB-231 triple negative breast cancer cells. Described as above. The format is cell-based. As to conditions: Homo sapiens. In short, it runs like this:
as §2

For another test, the system named is SK-Mel-28 melanoma cells. The description is as above. The format is cell-based. Conditions: Homo sapiens. An outline of the steps: as §2
The subject of test [9] is non-transfected and Tm5NM1 stably transfected MEFs. Description: MTT viability in non-transfected versus Tm5NM1 stably transfected MEFs. The format is cell-based, mouse. Conditions: 48 hr, FIG. 1. Here is the method:
FIG. 1: Activity of selected compounds against Tm5NM1/2 transfected mouse embryonic fibroblasts versus non-transfected MEFs.
Compounds 4001, 4010, 4014, 4008 and 4015 were then screened against non-transfected and Tm5NM1 stably transfected MEFs. Briefly, MEFs were transfected with pEYFP-C1/Tm5NM1 constructs using the Amaxa nucleofector apparatus (program A-023) and MEF nucleofector kit 1 (Lonza) according to the manufacturer's instructions. Cell viability assays were also conducted to assess the anti-proliferative effects of the anti-tropomyosin compounds. Briefly, cells (1×10^3/well) were plated (96-well) and treated (48 hr) with anti-tropomyosin compounds and viability measured using 3-(4,5-dimethylthiazol-2-yl)-2, 5-diphenylterazolium bromide MTT. Cell viability was normalized to control (vehicle alone) and dose-response curves, and half maximal effective concentration (EC50) values were determined using Graph Pad Prism 5 (nonlinear regression sigmoidal dose-response variable slope).

[10] abbreviates: DU-145, 72 h, 30, 3, 0.3 and 0.03 μM, linear regression (Tables 2-4).
Where [11] appears, read: Caco-2, 72 h, 30, 3, 0.3 and 0.03 μM, linear regression (Tables 2-4).
[12] abbreviates: A549, 72 h, 30, 3, 0.3 and 0.03 μM, linear regression (Tables 2-4).
The mark [13] stands for this setting: 30, 3, 0.3 and 0.03 μM, linear regression (Tables 2-4).
Setting [14] is: SK-N-SH, 30, 3, 0.3 and 0.03 μM, linear regression (Tables 2-4).
Where [15] appears, read: MDA-MB-231, 72 h, 30, 3, 0.3 and 0.03 μM, linear regression (Tables 2-4).
[16] abbreviates: SK-MEL-28, 72 h, 30, 3, 0.3 and 0.03 μM, linear regression (Tables 2-4).
Where [17] appears, read: DU-145, 72 h, 30, 10, 3, 1, 0.3 and 0.1 μM, nonlinear regression (Table 5).
The mark [18] stands for this setting: Caco-2, 72 h, 30, 10, 3, 1, 0.3 and 0.1 μM, nonlinear regression (Table 5).
The mark [19] stands for this setting: A549, 72 h, 30, 10, 3, 1, 0.3 and 0.1 μM, nonlinear regression (Table 5).
Setting [20] is: 30, 10, 3, 1, 0.3 and 0.1 μM, nonlinear regression (Table 5).
[21] abbreviates: SK-N-SH, 30, 10, 3, 1, 0.3 and 0.1 μM, nonlinear regression (Table 5).
Setting [22] is: MDA-MB-231, 72 h, 30, 10, 3, 1, 0.3 and 0.1 μM, nonlinear regression (Table 5).
[23] abbreviates: SK-MEL-28, 72 h, 30, 10, 3, 1, 0.3 and 0.1 μM, nonlinear regression (Table 5).

Turning to `CN(C)CCCn1ccc2cc(-c3cnn(CC4CCOCC4)c3)ccc21` [Compound 4006, N,N-dimethyl-3-(5-(1-((tetrahydro-2H-pyran-4-yl)methyl)-1H-pyrazol-4-yl)-1H-indol-1-yl)propan-1-amine], the IC50 in test [1] turned out to be 107 µM.

Take `CN(C)CCCn1ccc2cc(-c3cnn(CC4CCN(C)CC4)c3)ccc21` [Compound 4005, N,N-dimethyl-3-(5-(1-((1-methylpiperidin-4-yl)methyl)-1H-pyrazol-4-yl)-1H-indol-1-yl)propan-1-amine]: the IC50 stood at 5.4 µM in test [1] and 53.8 µM in test [2].

As to `CN(C)CCCn1ccc2cc(Nc3cccc(C(=O)Nc4ccccc4)c3)ccc21` [Compound 4013, 3-((1-(3-(dimethylamino)propyl)-1H-indol-5-yl)amino)-N-phenylbenzamide], the IC50 in [1] was 14.5 µM; in test [2], 15.8 µM; in [3] (setting [10]), more than 30 µM; in [4] (setting [11]), more than 30 µM; in [5] (setting [12]), 7.6 µM; in [6] (setting [13]), more than 30 µM. The IC50 is 4.2 µM in test [7] (setting [14]), 3.7 µM in test [8] (setting [15]) and 9.2 µM in the test with SK-Mel-28 melanoma cells (setting [16]).

As to `CN(C)CCCn1ccc2cc(-c3cnn(Cc4ccccc4)c3)ccc21` [Compound 4003, 3-(5-(1-benzyl-1H-pyrazol-4-yl)-1H-indol-1-yl)-N,N-dimethylpropan-1-amine], the IC50 in [2] was found to be 25.9 µM.

As for `CN(C)CCCn1ccc2cc(Oc3cccc(C(=O)Nc4ccccc4)c3)ccc21` [Compound 4014, 3-((1-(3-(dimethylamino)propyl)-1H-indol-5-yl)oxy)-N-phenylbenzamide], the IC50 in test [1] amounted to 4.3 µM; in test [2], 4 µM; in test [3] (setting [10]), 3.6 µM; in test [4] (setting [11]), 3.9 µM; in [5] (setting [12]), 2.9 µM; in [6] (setting [13]), 3.7 µM. The IC50 in test [7] (setting [14]) came to 3 µM; in test [8] (setting [15]) it was 2.5 µM; with SK-Mel-28 melanoma cells (setting [16]), 3.2 µM. For the same compound, the “Selectivity: toxicity against primary MEFs versus MEFs stably transfected with Tm5NM1/2” value in [9] is “less toxicity noted against primary mouse embryonic fibroblasts (MEFs) compared with MEFs stably transfected with Tm5NM1/2”.

Turning to `Cc1c(C)n(CCCN(C)C)c2ccc(Nc3cccc(C(=O)Nc4ccccc4)c3)cc12` [Compound 4011, 3-((1-(3-(dimethylamino)propyl)-2,3-dimethyl-1H-indol-5-yl)amino)-N-phenylbenzamide], the IC50 in test [1] stood at 8.7 µM; in test [2], 9.7 µM; in [3] (setting [10]), 3.3 µM; in test [4] (setting [11]), 2.8 µM; in test [5] (setting [12]), 3 µM; in [6] (setting [13]) it was 4.3 µM. Also, the IC50 was 2.5 µM in test [7] (setting [14]), 2.5 µM in test [8] (setting [15]) and 6.1 µM with SK-Mel-28 melanoma cells (setting [16]).

On to `CC(c1ccccc1)n1cc(-c2ccc3c(ccn3CCCN(C)C)c2)cn1` (stereo not drawn) [Compound 4004, N,N-dimethyl-3-(5-(1-(1-phenylethyl)-1H-pyrazol-4-yl)-1H-indol-1-yl)propan-1-amine], for which the IC50 in [1] is 6.7 µM; in test [2], 9.8 µM.

In the case of `Cc1c(C)n(CCCN(C)C)c2ccc(-c3cnn(Cc4ccccc4)c3)cc12` [Compound 4009, 3-(5-(1-benzyl-1H-pyrazol-4-yl)-2,3-dimethyl-1H-indol-1-yl)-N,N-dimethylpropan-1-amine], the IC50 was 3 µM in test [1] and 5.4 µM in [2].

As for `CN(C)CCCn1ccc2cc(Cc3cccc(C(=O)Nc4ccccc4)c3)ccc21` [Compound 4008], the IC50 in test [1] was 2.7 µM; in [2], 3.4 µM; in [3] (setting [10]), 3.3 µM; in test [4] (setting [11]), 5.8 µM; in test [5] (setting [12]), 3.8 µM; in test [6] (setting [13]), 4.3 µM. Moreover, the IC50 is 9.3 µM in test [7] (setting [14]), 3.9 µM in test [8] (setting [15]) and 3.3 µM in the test on SK-Mel-28 melanoma cells (setting [16]).

With `CN(C)CCCn1ccc2cc(Oc3ccc(C(=O)Nc4ccccc4)cc3)ccc21` [Compound 4002, 4-((1-(3-(dimethylamino)propyl)-1H-indol-5-yl)oxy)-N-phenylbenzamide], the IC50 worked out at 9.24 µM in [1]; 7.04 µM in [2]; 37.4 µM in test [3] (setting [17]); 13.1 µM in test [4] (setting [18]); 16.3 µM in test [5] (setting [19]); 12.4 µM in [6] (setting [20]). Further, the IC50 in test [7] (setting [21]) is 3.2 µM; in test [8] (setting [22]), 15.7 µM; in the test on SK-Mel-28 melanoma cells (setting [23]), 9.3 µM.

As to `CN(C)CCCn1ccc2cc(Nc3ccc(C(=O)Nc4cccc(F)c4)cc3)ccc21` [Compound 4102, 4-((1-(3-(dimethylamino)propyl)-1H-indol-5-yl)amino)-N-(3-fluorophenyl)benzamide], the IC50 in [3] (setting [10]) is 6 µM; in [4] (setting [11]) it was more than 30 µM; in test [5] (setting [12]) it was 4 µM; in test [6] (setting [13]) it was 5.5 µM; in test [7] (setting [14]), 3.5 µM; in test [8] (setting [15]), 3.6 µM. In the test with SK-Mel-28 melanoma cells (setting [16]), this compound registered an IC50 of 3.5 µM.

For `COc1ccc(NC(=O)c2cccc(Cc3ccc4c(ccn4CCCN(C)C)c3)c2)cc1` [Compound 4046, 3-((1-(3-(dimethylamino)propyl)-1H-indol-5-yl)methyl)-N-(4-methoxyphenyl)benzamide], the IC50 in [3] (setting [10]) worked out at 2.6 µM; in test [4] (setting [11]), 3.2 µM; in [5] (setting [12]), 1.7 µM; in test [6] (setting [13]) it was 1.1 µM; in [7] (setting [14]), 3.2 µM; in test [8] (setting [15]) it was 1.9 µM. Further, in the test with SK-Mel-28 melanoma cells (setting [16]), the IC50 came to 1.9 µM.

Regarding `COc1cccc(NC(=O)c2cccc(Oc3ccc4c(ccn4CCCN(C)C)c3)c2)c1` [Compound 4060], the IC50 in test [3] (setting [10]) turned out to be 4 µM; in test [4] (setting [11]), 4 µM; in [5] (setting [12]), 4.2 µM; in test [6] (setting [13]), 5 µM; in test [7] (setting [14]) it was 3.6 µM; in test [8] (setting [15]), 2.8 µM. This compound displayed an IC50 in the test on SK-Mel-28 melanoma cells (setting [16]) of 2.8 µM.

As for `CN(C)CCCn1ccc2cc(Oc3ccc(C(=O)Nc4cccc(F)c4)cc3)ccc21` [Compound 4091, 4-((1-(3-(dimethylamino)propyl)-1H-indol-5-yl)oxy)-N-(3-fluorophenyl)benzamide], the IC50 in test [3] (setting [17]) stood at 10.6 µM; in test [4] (setting [18]), 10.2 µM; in test [5] (setting [19]), 9.5 µM; in test [6] (setting [20]), 19.6 µM; in [7] (setting [21]), 9.7 µM; in test [8] (setting [22]) it was 28.9 µM. In the test with SK-Mel-28 melanoma cells (setting [23]), this compound returned an IC50 of 15.4 µM.

Turning to `COc1ccc(CCN2CCN(C(=O)c3ccc4c(c3)c(C)c(C)n4CCCN3CCN(C)CC3)CC2)cc1` [Compound 4121, (2,3-dimethyl-1-(3-(4-methylpiperazin-1-yl)propyl)-1H-indol-5-yl)(4-(4-methoxyphenethyl)piperazin-1-yl)methanone], the IC50 in test [3] (setting [10]) is more than 30 µM; in test [4] (setting [11]), more than 30 µM; in test [5] (setting [12]), 15.7 µM; in test [6] (setting [13]) it was more than 30 µM; in test [7] (setting [14]), 13.6 µM; in test [8] (setting [15]) it was 13.2 µM. In the test with SK-Mel-28 melanoma cells (setting [16]), this compound displayed an IC50 of 14.7 µM.

On to `COc1ccc(NC(=O)c2cccc(Nc3ccc4c(ccn4CCCN(C)C)c3)c2)cc1` [Compound 4068, 3-((1-(3-(dimethylamino)propyl)-1H-indol-5-yl)amino)-N-(4-methoxyphenyl)benzamide], for which the IC50 in [3] (setting [10]) was 5.4 µM; in test [4] (setting [11]) it was more than 30 µM; in test [5] (setting [12]) it was 2.9 µM; in test [6] (setting [13]), 14.6 µM; in test [7] (setting [14]) it was 3.5 µM; in test [8] (setting [15]), 2.8 µM. Also, the IC50 in the test on SK-Mel-28 melanoma cells (setting [16]) is 2.7 µM.
